Data as given in ChEMBL document CHEMBL4665796 (2020).
Calls of active or inactive are those of the source. The calls are words filed in the database; no cut-off is given here.

Assays:
[1] = biological target: Sodium channel protein type 5 subunit alpha (Homo sapiens, UniProt Q14524); assay: Inhibition of NaV1.5 (unknown origin) at 5 uM
[2] = tested on: Pseudomonas putida; assay: Antimicrobial activity against Pseudomonas putida at 1.5 ug after 18 hrs by paper disk-agar diffusion assay; assay type: functional, organism-based; settings: dose 1.5 µg
[3] = tested on: Candida; assay: Antimicrobial activity against Candida sp. at 1.5 ug after 18 hrs by paper disk-agar diffusion assay; assay type: functional, organism-based; settings: dose 1.5 µg
[4] = tested on: Bacillus subtilis; assay: Antimicrobial activity against Bacillus subtilis at 1.5 ug after 18 hrs by paper disk-agar diffusion assay; assay type: functional, organism-based; settings: dose 1.5 µg

Sequence of Sodium channel protein type 5 subunit alpha (Q14524 whole entry, the tested form may be a part): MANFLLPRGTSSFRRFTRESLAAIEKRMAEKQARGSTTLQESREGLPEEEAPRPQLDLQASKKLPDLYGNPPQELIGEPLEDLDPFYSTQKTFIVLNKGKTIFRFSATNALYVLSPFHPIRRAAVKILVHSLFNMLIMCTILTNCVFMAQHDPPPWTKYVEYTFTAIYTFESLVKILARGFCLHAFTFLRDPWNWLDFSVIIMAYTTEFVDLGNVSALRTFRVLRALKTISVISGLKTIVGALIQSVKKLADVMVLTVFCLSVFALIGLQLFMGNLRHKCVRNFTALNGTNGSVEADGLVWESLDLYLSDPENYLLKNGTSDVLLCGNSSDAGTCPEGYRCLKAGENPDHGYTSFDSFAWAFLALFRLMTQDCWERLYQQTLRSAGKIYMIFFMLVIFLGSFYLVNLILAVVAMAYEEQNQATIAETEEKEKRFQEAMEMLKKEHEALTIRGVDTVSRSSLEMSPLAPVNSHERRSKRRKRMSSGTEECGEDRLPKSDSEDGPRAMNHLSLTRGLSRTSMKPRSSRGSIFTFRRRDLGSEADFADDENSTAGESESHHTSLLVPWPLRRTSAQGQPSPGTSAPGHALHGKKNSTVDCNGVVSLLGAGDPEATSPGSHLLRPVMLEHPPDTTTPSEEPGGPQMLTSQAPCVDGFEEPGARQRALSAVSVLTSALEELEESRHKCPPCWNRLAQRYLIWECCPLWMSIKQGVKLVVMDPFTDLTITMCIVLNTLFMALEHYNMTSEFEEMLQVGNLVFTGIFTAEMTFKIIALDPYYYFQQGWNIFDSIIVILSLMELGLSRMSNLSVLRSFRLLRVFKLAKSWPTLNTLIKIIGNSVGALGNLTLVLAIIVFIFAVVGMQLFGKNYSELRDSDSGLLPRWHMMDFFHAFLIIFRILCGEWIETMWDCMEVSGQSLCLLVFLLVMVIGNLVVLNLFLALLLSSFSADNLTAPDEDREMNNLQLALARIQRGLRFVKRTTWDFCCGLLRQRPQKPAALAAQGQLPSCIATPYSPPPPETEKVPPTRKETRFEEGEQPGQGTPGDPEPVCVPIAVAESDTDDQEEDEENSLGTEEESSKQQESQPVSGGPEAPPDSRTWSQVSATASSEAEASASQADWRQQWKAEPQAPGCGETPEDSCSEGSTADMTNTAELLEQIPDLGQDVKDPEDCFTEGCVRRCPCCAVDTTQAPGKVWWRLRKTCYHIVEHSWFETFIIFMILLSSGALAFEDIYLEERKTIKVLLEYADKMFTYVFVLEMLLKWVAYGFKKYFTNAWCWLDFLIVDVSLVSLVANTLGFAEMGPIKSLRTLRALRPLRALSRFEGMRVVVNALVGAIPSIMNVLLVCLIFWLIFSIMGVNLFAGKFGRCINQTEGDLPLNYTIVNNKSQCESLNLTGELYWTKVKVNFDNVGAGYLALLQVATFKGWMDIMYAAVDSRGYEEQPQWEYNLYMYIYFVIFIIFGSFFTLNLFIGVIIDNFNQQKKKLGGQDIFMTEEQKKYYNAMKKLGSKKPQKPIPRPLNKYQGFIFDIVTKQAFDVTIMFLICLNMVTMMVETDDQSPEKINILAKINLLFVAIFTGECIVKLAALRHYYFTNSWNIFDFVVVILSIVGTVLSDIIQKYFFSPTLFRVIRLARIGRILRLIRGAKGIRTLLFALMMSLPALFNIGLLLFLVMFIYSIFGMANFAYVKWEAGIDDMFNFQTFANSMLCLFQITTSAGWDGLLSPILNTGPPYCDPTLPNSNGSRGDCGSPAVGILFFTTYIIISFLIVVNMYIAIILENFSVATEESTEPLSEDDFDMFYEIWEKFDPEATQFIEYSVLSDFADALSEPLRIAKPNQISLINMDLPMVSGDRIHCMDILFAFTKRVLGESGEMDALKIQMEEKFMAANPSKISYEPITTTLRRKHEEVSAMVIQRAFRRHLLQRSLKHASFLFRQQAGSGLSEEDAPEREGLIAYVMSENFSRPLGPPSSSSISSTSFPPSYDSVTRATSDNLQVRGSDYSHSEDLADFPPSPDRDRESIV

C[C@]12NC(=N)NC[C@H]1C[C@]1(C)O[C@@]2(O)C[C@@H]1O
inhibition (INH) [1]: Not Active

C[C@]12NC(=N)NC=C1C[C@]1(C)O[C@@]2(O)CC1=O
Activity [2]: inactive | Activity [3]: inactive | Activity [4]: inactive | inhibition (INH) [1]: Not Active

C[C@]12NC(=N)NC=C1C[C@]1(C)O[C@@]2(O)C[C@@H]1O
Activity [2]: inactive | Activity [3]: inactive | Activity [4]: inactive | inhibition (INH) [1]: Not Active

C[C@]1(O)C[C@@H]2CNC(=N)N[C@]2(C)C(=O)C[C@@H]1O
inhibition (INH) [1]: Not Active

C[C@@]12NC(=N)N[C@H]3O[C@H]4C[C@]1(O)O[C@@]4(C)C[C@H]32
inhibition (INH) [1]: Not Active

C[C@]12NC(=N)NC[C@H]1C[C@]1(C)O[C@@]2(O)CC1=O
inhibition (INH) [1]: Not Active
